Reference: ChEMBL document CHEMBL4177610, “Discovery of a novel 2,4-dimethylquinoline-6-carboxamide M4 positive allosteric modulator (PAM) chemotype via scaffold hopping” (Bioorg Med Chem Lett, 2017)
Activity calls are given as the source filed them. The rule behind the calls is not given here.

Tests used:
[1] = molecular target: T1, Muscarinic acetylcholine receptor M4 (Rattus norvegicus) (UniProt P08485); assay: Positive allosteric modulation of rat M4 receptor expressed in CHO cells co-expressing Gqi5 assessed as increase in acetylcholine-induced calcium mobilization relative to acetylcholine; type: functional, cell-based
T1 sequence (whole entry): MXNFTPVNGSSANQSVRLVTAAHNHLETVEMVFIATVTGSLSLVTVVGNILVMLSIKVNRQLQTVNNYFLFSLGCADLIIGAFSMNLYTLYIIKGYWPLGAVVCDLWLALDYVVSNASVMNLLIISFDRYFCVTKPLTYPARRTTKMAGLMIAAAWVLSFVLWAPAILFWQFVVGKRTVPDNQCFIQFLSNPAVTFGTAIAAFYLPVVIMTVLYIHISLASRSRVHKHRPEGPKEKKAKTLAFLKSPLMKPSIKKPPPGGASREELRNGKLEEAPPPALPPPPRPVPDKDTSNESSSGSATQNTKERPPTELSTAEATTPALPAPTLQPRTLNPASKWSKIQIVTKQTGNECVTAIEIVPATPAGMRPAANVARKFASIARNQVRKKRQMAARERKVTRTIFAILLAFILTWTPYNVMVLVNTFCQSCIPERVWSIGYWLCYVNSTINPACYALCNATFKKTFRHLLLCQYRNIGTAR

[2] = molecular target: T2, Muscarinic acetylcholine receptor M4 (Rattus norvegicus, UniProt P08485); assay: (§1) Positive allosteric modulation of rat M4 receptor expressed in CHO cells co-expressing Gqi5 assessed as increase in acetylcholine-induced calcium mobilization; type: functional, cell-based
T2 sequence (P08485 whole entry): T1 sequence (whole entry)

[3] = Intrinsic clearance in human liver microsomes; type: ADME, microsome; conditions: read-out: CLH
[4] = Intrinsic clearance in rat liver microsomes; type: ADME, microsome; conditions: read-out: CLH
[5] = Fraction unbound in rat plasma; type: ADME, cell-free
[6] = Ratio of unbound brain to plasma concentration in Sprague-Dawley rat at 0.2 mg/kg, iv measured after 0.25 hrs; type: ADME, organism-based; conditions: brain and plasma, read-out: K(p,uu,brain)
[7] = Fraction unbound in human plasma; type: ADME, cell-free
[8] = Brain to plasma partition coefficient, Kp of the compound in Sprague-Dawley rat at 0.2 mg/kg, iv measured after 0.25 hrs; type: ADME, organism-based; conditions: brain and plasma
[9] = Fraction unbound in rat brain; type: ADME, tissue-based
[10] = molecular target: T1, Muscarinic acetylcholine receptor M4 (Rattus norvegicus); assay: as §1; type: functional, cell-based

Cc1cc(C)c2cc(C(=O)NC3CN(c4ccnc(OC(F)F)c4)C3)ccc2n1
%max [1]: 86%
EC50 ([2]; read-out: EC50): 1130 nM

Cc1cc(C)c2cc(C(=O)NC3CN(c4ncc(C(F)(F)F)cn4)C3)ccc2n1
%max [1]: 66%
EC50 ([2]; read-out: EC50): 3910 nM

Cc1cc(C)c2cc(C(=O)NC3CN(c4ccnc(F)c4F)C3)ccc2n1
CLint scaled [3]: 129 mL/min/kg
CLint scaled [4]: 232 mL/min/kg
fraction unbound [5]: 0.013
Kp uu at 0.25 h [6]: 0.3
fraction unbound [7]: 0.009
Kp at 0.25 h [8]: 0.17
fraction unbound [9]: 0.023
%max [1]: 82%
EC50 ([2]; read-out: EC50): 332 nM

Cc1cc(C)c2cc(C(=O)NC3CN(c4cnc(C5CC5)cn4)C3)ccc2n1
%max [1]: 82%
EC50 ([2]; read-out: EC50): 1070 nM

Cc1cc(C)c2cc(C(=O)NC3CN(c4ncc(F)cc4Cl)C3)ccc2n1
%max [1]: 72%
EC50 ([2]; read-out: EC50): 401 nM

Cc1cc(C)c2cc(C(=O)NC3CN(c4cnc(C(F)(F)F)cn4)C3)ccc2n1
%max [1]: 75%
EC50 ([2]; read-out: EC50): 1160 nM

Cc1cc(C)c2cc(C(=O)NC3CN(c4ncc(Cl)cc4F)C3)ccc2n1
%max [1]: 82%
EC50 ([2]; read-out: EC50): 453 nM

COc1cc(N2CC(NC(=O)c3ccc4nc(C)cc(C)c4c3)C2)c(Cl)cn1
CLint scaled [3]: 106 mL/min/kg
CLint scaled [4]: 178 mL/min/kg
fraction unbound [5]: 0.002
Kp uu at 0.25 h [6]: 3.36
fraction unbound [7]: 0.002
Kp at 0.25 h [8]: 0.84
fraction unbound [9]: 0.008
%max [1]: 62%
EC50 ([2]; read-out: EC50): 383 nM

COc1ccc(CNC(=O)c2sc3nnc(C)c(C)c3c2N)cc1F
EC50 ([2]; read-out: EC50): 225 nM

Cc1ccc(OC2CCN(c3ncnc4ccc(F)cc34)CC2)cn1
EC50 ([2]; read-out: EC50): 225 nM

Cc1cc(C)c2cc(C(=O)NC3CN(c4ccc(OC(F)F)nc4)C3)ccc2n1
%max [1]: 43%
EC50 ([2]; cho): Not Active
pEC50 [10]: inactive

Cc1cc(C)c2cc(C(=O)NC3CN(c4ncc(OC(C)C)cn4)C3)ccc2n1
%max [1]: 73%
EC50 ([2]; read-out: EC50): 6140 nM

Cc1cc(C)c2cc(C(=O)NC3CN(c4ccc(Cl)cn4)C3)ccc2n1
%max [1]: 84%
EC50 ([2]; read-out: EC50): 967 nM

Cc1cc(C)c2cc(C(=O)NC3CN(c4cc(Cl)ncc4Cl)C3)ccc2n1
CLint scaled [3]: 160 mL/min/kg
CLint scaled [4]: 295 mL/min/kg
fraction unbound [5]: 0.002
Kp uu at 0.25 h [6]: 0.3
fraction unbound [7]: 0.002
Kp at 0.25 h [8]: 0.1
fraction unbound [9]: 0.006
%max [1]: 57%
EC50 ([2]; read-out: EC50): 307 nM

Cc1cc(C)c2cc(C(=O)NC3CN(c4ccc(C(F)(F)F)nc4)C3)ccc2n1
CLint scaled [3]: 36 mL/min/kg
CLint scaled [4]: 94 mL/min/kg
fraction unbound [5]: 0.004
Kp uu at 0.25 h [6]: 0.2
fraction unbound [7]: 0.005
Kp at 0.25 h [8]: 0.05
fraction unbound [9]: 0.016
%max [1]: 85%
EC50 ([2]; read-out: EC50): 449 nM

Cc1cc(C)c2cc(C(=O)NC3CN(c4cccc(Cl)n4)C3)ccc2n1
%max [1]: 77%
EC50 ([2]; read-out: EC50): 440 nM

Cc1cc(C)c2cc(C(=O)NC3CN(c4ncccc4Cl)C3)ccc2n1
%max [1]: 82%
EC50 ([2]; read-out: EC50): 935 nM

Cc1cc(C)c2cc(C(=O)NC3CN(c4ncc(Cl)cc4Cl)C3)ccc2n1
%max [1]: 70%
EC50 ([2]; read-out: EC50): 587 nM

Cc1cc(C)c2cc(C(=O)NC3CN(c4ccc(F)c(F)c4)C3)ccc2n1
%max [1]: 55%
EC50 ([2]; read-out: EC50): 856 nM

Cc1cc(N2CC(NC(=O)c3ccc4nc(C)cc(C)c4c3)C2)cc(OC(F)F)n1
%max [1]: 71%
EC50 ([2]; read-out: EC50): 1060 nM

Cc1cc(C)c2cc(C(=O)NC3CN(c4ccc(C(F)(F)F)cn4)C3)ccc2n1
%max [1]: 77%
EC50 ([2]; read-out: EC50): 1080 nM

COc1nc2sc(C(=O)NC3CC3)c(N)c2c(C)c1Cl
EC50 ([2]; read-out: EC50): 225 nM

Cc1cc(C)c2cc(C(=O)NC3CN(c4ccnc(C(F)(F)F)c4)C3)ccc2n1
%max [1]: 61%
EC50 ([2]; read-out: EC50): 820 nM

Cc1cc(C)c2cc(C(=O)N3CCCC3)ccc2n1
%max [1]: 18.3%
EC50 ([2]; cho): Not Active
pEC50 [10]: inactive

Cc1cc(C)c2cc(C(=O)NC3CN(c4cc(Cl)nc(Cl)c4)C3)ccc2n1
%max [1]: 44%
EC50 ([2]; read-out: EC50): 225 nM

Cc1cc(C)c2cc(C(=O)NC3CN(c4ncc(F)cn4)C3)ccc2n1
%max [1]: 61%
EC50 ([2]; read-out: EC50): > 10000 nM

COc1ccc(CNC(=O)c2ccc3nc(C)cc(C)c3c2)cc1F
%max [1]: 63%
EC50 ([2]; read-out: EC50): > 10000 nM

COc1ccc(C)c2sc(NC(=O)c3ccncc3)nc12
EC50 ([2]; read-out: EC50): 225 nM
